Measured values: patent US20240018120A1, “MAGL INHIBITORS” (H. LUNDBECK A/S, priority 2020, published 2024)

Experiments:
[1] = target: T1, MAGL (Homo sapiens, UniProt Q99685); assay: In vitro competitive activity-based protein profiling, PC3 human cell membrane proteomes; format: biochemical; set-up: endogenous in cells; host or cells: PC3 human cells (membrane proteome); settings: human PC3 membrane proteome
T1 sequence (Q99685 1-303): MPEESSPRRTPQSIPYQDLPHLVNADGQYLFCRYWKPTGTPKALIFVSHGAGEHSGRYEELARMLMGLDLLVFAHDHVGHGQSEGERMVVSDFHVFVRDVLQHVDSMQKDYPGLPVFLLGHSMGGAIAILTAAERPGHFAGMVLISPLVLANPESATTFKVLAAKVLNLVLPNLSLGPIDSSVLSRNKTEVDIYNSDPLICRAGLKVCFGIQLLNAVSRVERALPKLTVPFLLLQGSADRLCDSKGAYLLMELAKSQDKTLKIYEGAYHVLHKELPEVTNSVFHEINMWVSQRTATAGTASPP
In short: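 Competitive ABPP in PC3 membrane proteome (2.0 mg/mL protein): inhibitors preincubated 30 min at 37° C, then JW912-Bodipy probe added for 30 min at room temperature. MAGL band fluorescence after SDS-PAGE normalised to DMSO; IC50 from 4-parameter sigmoidal fit.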

[2] = target: T1, MAGL; assay: In vitro competitive substrate hydrolysis enzyme activity assay (pNPA), HEK293 cell lysates; format: biochemical; set-up: expressed in transfected cells; host or cells: HEK293; settings: HEK293 lysate
In short: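 Lysates of HEK293 cells expressing human MAGL (~1.2 μg protein) preincubated 30 min at 25° C with inhibitor in 50 mM HEPES pH 7.0, 200 mM KCl, 1 mM EDTA. pNPA substrate then added (2× stock 2.5 mM), and A405 followed for 20 min at 25° C. Rates normalized to DMSO, and IC50 from 4-parameter fit.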

[3] = system: rat formalin paw model of inflammatory pain; assay: Rat formalin paw model of inflammatory pain; format: in vivo; settings: 0.6 mg/kg, 3 mg/kg and 10 mg/kg oral, 4 h pre-test; early and/or late phases; vs vehicle
Procedure: In the rat formalin paw model formalin is administered into the right […] of a rat in order to induce pain (observed by hind limb licking duration and frequency).
Male Sprague Dawley rats were divided into three cohorts to enable testing in the Laboras™ equipment to be carried out over three days in a balanced design to give treatment groups of 10. On the day of the study, male Sprague Dawley rats were weighed, tail marked and dosed orally with vehicle, test compound (0.1, 0.3, 0.6, 1, 3 or 10 mg/kg) or pregabalin (30 mg/kg) 4 h pre-test using a 5 mL/kg dosing volume. For Example 6 the vehicle used was 0.5% methylcellulose in water and for Example 8 the vehicle used was 20% HP-b-CD. Up to six animals were dosed at a time. After 4 h, rats received an intraplantar injection of 50 μL of a 2.5% v/v formalin solution into the right hind paw. Rats were immediately placed into the Laboras™ cages and data acquisition started. The primary measures recorded by Laboras™ for the formalin paw model are hind limb licking duration and frequency. Locomotion is also reported as maximum speed, average speed when moving or over the whole-time bin and distance travelled. After 40 min, when data acquisition was complete, rats were removed from the cages.
On removal from the test cages, rats were anaesthetised with the gaseous anaesthetic isoflurane (5% v/v isoflurane in oxygen) and blood samples were collected by cardiac puncture. Brains were then removed, rinsed in phosphate buffered saline (PBS), hemi-sected and frozen separately in liquid nitrogen.
Data were analysed with Statistica software (TIBCO, USA version 11.1). All data are expressed as means±standard error of the mean (sem) to one decimal place. […] Time course data were analysed by repeated measures analysis of variance (ANOVA) followed by one-way ANOVAs at each time point and subsequent Dunnett's post hoc tests. […]

[4] = system: maximal electroshock seizure threshold (MEST) model; assay: Maximal electroshock seizure threshold (MEST) model in the rat; format: in vivo; settings: 10 mg/kg p.o., 240 min pre-treatment
Procedure: In the MEST model, a low-intensity electrical current of high frequency and short duration is applied to induce tonic convulsions.
Animals were randomly assigned to vehicle, compound treatment or Lamotrigine dose groups. Animals were dosed at 5 mL/kg according to treatment groups (n=12 or 16/group), with either vehicle (0.5% MC) p.o. for Example 6, vehicle (10% HP-b-CD) for Example 8, test compound at 10 mg/kg p.o. 240 min pre-treatment time, or Lamotrigine p.o. 360 min pre-treatment time. Rats were individually assessed for production of a tonic hind limb extensor seizure following a single corneally delivered electroshock of 0.3 second duration, using an ‘up and down method’ of shock titration (Kimball A W et al., 1957). Thus, the first rat within a treatment group was given a shock at the expected or estimated CC50 current (current producing tonic hind limb extensor seizures in 50% of animals). […] This procedure was continued for all rats within a treatment group. Induction of seizure was measured as an all-or-nothing effect scored as either present (+) or absent (0) for each animal. […]
Significant differences between drug-treated animals and controls were assessed according to Litchfield and Wilcoxon (1949) or One-Way ANOVA followed by Dunnett's multiple comparisons test.

O=C(Nc1cccnn1)[C@H]1CC12CCN(C(=O)OC(C(F)(F)F)C(F)(F)F)CC2 [Example 6, 1,1,1,3,3,3-Hexafluoropropan-2-yl (S)-1-(pyridazin-3-ylcarbamoyl)-6-azaspiro[2.5]octane-6-carboxylate]
IC50 [1]: 0.0046 µM | IC50 [2]: 0.00826 µM | measure of spontaneous pain (hind limb licking frequency) [3]: statistically significant reduction | anticonvulsant activity in the MEST (seizure threshold CC50) [4]: anticonvulsant activity
